Experimental data published in PMC9600172, “N-Succinyltransferase Encoded by a Cryptic Siderophore Biosynthesis Gene Cluster in Streptomyces Modifies Structurally Distinct Antibiotics” (mBio, 2022).
≈ marks a conversion by molar mass, not a printed value. Like-named read-outs stand apart in the source and are kept apart here.

Experiments:
Set-up in all cases: Broth microdilution MIC following CLSI protocol, bacterial growth inhibition, at Medina Foundation
[1] = test system: T1, Staphylococcus aureus MRSA MB5393; test: microbe, parasite or virus in culture
T1 construct: MB5393 (MRSA)
Procedure: (§1) Testing of antimicrobial activities of desertomycin A and X was done by disk diffusion assay using Bacillus subtilis 164, Escherichia coli DH5a, and Saccharomyces cerevisiae BY4742 as test organisms. […] In vitro susceptibility for desertomycin A was determined at Medina Foundation (Granada, Spain) by the broth microdilution method following the Clinical and Laboratory Standards Institute protocol ([34]) using bacterial strains from the company’s strain collection (Table S4). […] In order to properly assess antibiotic activity of desertomycin A, it was tested, along with some clinically relevant antibiotics, on a panel of Gram-positive and Gram-negative bacteria using the broth microdilution method. […] This can be explained by different physiological conditions of bacterial cultures on the solid agar medium (initial disk assay) and in liquid cultures (CLSI method).

[2] = test system: T2, Staphylococcus aureus MSSA MB2865; test: microbe, parasite or virus in culture
T2 construct: MB2865 (MSSA)
Procedure: as §1

E. faeciumVR [3] = test system: T3, E. faeciumVR; test: organism not typed
T3 construct: VR (vancomycin-resistant)
Procedure: as §1

E. faeciumVS [4] = test system: T4, E. faeciumVS; test: organism not typed
T4 construct: VS (vancomycin-susceptible)
Procedure: as §1

[5] = test system: T1, Staphylococcus aureus MRSA MB5393; test: microbe, parasite or virus in culture; remark: listed apart in the source
Procedure: as §1, with “[…]” for “liquid”

[6] = test system: T2, Staphylococcus aureus MSSA MB2865; test: microbe, parasite or virus in culture; remark: listed apart in the source
Procedure: as §1, with “[…]” for “liquid”

E. faeciumVR [7] = test system: T3, E. faeciumVR; test: organism not typed; remark: listed apart in the source
Procedure: as §1, with “[…]” for “liquid”

E. faeciumVS [8] = test system: T4, E. faeciumVS; test: organism not typed; remark: listed apart in the source
Procedure: as §1, with “[…]” for “liquid”

S. mutans ATCC25175 = test system: T5, S. mutans ATCC25175; test: microbe, parasite or virus in culture; conditions: Streptococcus mutans
T5 construct: ATCC 25175

| Compound | MIC [1] [µg/mL] | MIC [2] [µg/mL] | MIC (E. faeciumVR [3]) [µg/mL] | MIC (E. faeciumVS [4]) [µg/mL] | MIC [5] [µg/mL] | MIC [6] [µg/mL] | MIC (E. faeciumVR [7]) [µg/mL] | MIC (E. faeciumVS [8]) [µg/mL] | MIC (S. mutans ATCC25175) [µg/mL] |
| --- | --- | --- | --- | --- | --- | --- | --- | --- | --- |
| CNC(C)[C@@H]1CC[C@@H](N)[C@@H](O[C@H]2[C@H](O)[C@@H](O[C@H]3OC[C@](C)(O)[C@H](NC)[C@H]3O)[C@H](N)C[C@@H]2N)O1 (stereo partly shown) [Gentamicin] | < 0.25 | 1 (≈ 2.09 µM) | 32 (≈ 67 µM) | > 128 | – | – | – | – | – |
| CC1=CCCC(C)C(O)C(C)C(O)CCC=CC(C)C(O)C=CC(C)C(O)C(C)=CC(O[C@H]2O[C@H](CO)[C@@H](O)[C@H](O)[C@@H]2O)C(O)CC(O)CC(O)CC(O)C(C)C(O)C(C)C(O)CC(O)CC(O)C=CCC(C(C)C(O)CCCN)OC1=O (stereo partly shown) [Desertomycin A] | – | – | – | – | 64 (≈ 53.7 µM) | 32 (≈ 26.8 µM) | 128 (≈ 107 µM) | 64 (≈ 53.7 µM) | 32 (≈ 26.8 µM) |
| CC1(C)S[C@@H]2[C@H](NC(=O)Cc3ccccc3)C(=O)N2[C@H]1C(=O)O [Penicillin G] | – | – | – | – | 16 (≈ 47.8 µM) | 16 (≈ 47.8 µM) | > 128 | > 128 | – |
| CO[C@H]1/C=C/O[C@@]2(C)Oc3c(C)c(O)c4c(O)c(c(/C=N/N5CCN(C)CC5)c(O)c4c3C2=O)NC(=O)/C(C)=C\C=C\[C@H](C)[C@H](O)[C@@H](C)[C@@H](O)[C@@H](C)[C@H](OC(C)=O)[C@@H]1C [Rifampicin] | – | – | – | – | 0.5 (≈ 0.608 µM) | 0.5 (≈ 0.608 µM) | 16 (≈ 19.4 µM) | 8 (≈ 9.72 µM) | – |
| CN[C@H](CC(C)C)C(=O)N[C@H]1C(=O)N[C@@H](CC(N)=O)C(=O)N[C@H]2C(=O)N[C@H]3C(=O)N[C@H](C(=O)N[C@H](C(=O)O)c4cc(O)cc(O)c4-c4cc3ccc4O)[C@H](O)c3ccc(c(Cl)c3)Oc3cc2cc(c3O[C@@H]2O[C@H](CO)[C@@H](O)[C@H](O)[C@H]2O[C@H]2C[C@](C)(N)[C@H](O)[C@H](C)O2)Oc2ccc(cc2Cl)[C@H]1O [Vancomycin] | – | – | – | – | 8 (≈ 5.52 µM) | 2 (≈ 1.38 µM) | > 128 | 16 (≈ 11 µM) | – |
| C[C@H]1[C@H](NC(=O)/C(=N\OC(C)(C)C(=O)O)c2csc(N)n2)C(=O)N1S(=O)(=O)O [Aztreonam] | – | – | – | – | > 128 | > 128 | > 128 | > 128 | – |
| C[C@@H](O)[C@H]1C(=O)N2C(C(=O)O)=C(SCCNC=N)C[C@H]12 [Imipenem] | – | – | – | – | 8 (≈ 26.7 µM) | < 0.25 | > 128 | > 128 | – |
| O=C(O)c1cn(C2CC2)c2cc(N3CCNCC3)c(F)cc2c1=O [Ciprofloxacin] | – | – | – | – | 0.5 (≈ 1.51 µM) | < 0.25 | 16 (≈ 48.3 µM) | > 128 | – |
| C[C@@H](O)[C@H]1C(=O)N2C(C(=O)O)=C(S[C@@H]3CN[C@H](C(=O)N(C)C)C3)[C@H](C)[C@H]12 [Meropenem] | – | – | – | – | 8 (≈ 20.9 µM) | < 0.25 | > 128 | > 128 | – |
